Read-outs that look alike come from different tables or passages of the source.

In test [1] the test system is Tumors derived from NIH3T3 cells expressing two different splice variants of FGFR1 plus Myc. Kind of test: Xenograft mouse model, tumor volume. It counts as in vivo, mice. The method, then:
(§1) All animal procedures were approved by the local animal protection committee and the local authorities. Xenograft-experiments were performed in 10 to 15 week old male athymic NMRI-nude-mice (Janvier, Europe). Mice were hold in a 12 hour light-dark-cycle. They got water and standard food ad libitium.
(§2) NIH3T3-cells transduced with empty Vector (puro), empty Vector (puro+zeo), KRAS G12V, FGFR1-α, FGFR1-β, FGFR1-β + cMyc were cultured as described before. For implantation they were resuspended in plain RPMI in a concentration of 50*10^6 cells/ml. 5*10^6 cells were injected subcutaneously in mice, under 2.5% Isolflurane-anaesthesia. Tumorgrowth was monitored every 2nd day by calimetric measurement. Tumorvolumes were calculated by V= […].
(§3) Therapy was started when tumors reached a size of 100mm^3. They were treated daily by oral gavage either with 10mg/kg NVP-BGJ 398 (Novartis) dissolved in vehicle (PEG300, 5%Glucose; 2:1) or with the vehicle-detergent alone. After 8 (KRas), 12 (FGFR1-α and FGFR1-β + cMyc), days of therapy mice were sacrificed by intraperitoneal injection of Ketamin/Xylazine (300/60 mg/kg) and tumors were resected and fixed in 4% formaldehyde for histology.

For test [2], the system named is Tumors derived from NIH3T3 cells expressing only FGFR1. The experiment in a line: Xenograft mouse model, tumor volume. It counts as in vivo, mice. The method, then:
as §1, §2, §3

Test [3] has as its system Tumors derived from NIH3T3 cells expressing KRas G12V. Kind of test: Xenograft mouse model, tumor volume. The note with it: Figure 3; KRas G12V (positive control); 10mg/kg daily by oral gavage. In kind it is in vivo, mice. The method, then: as §1, §2, §3
Test [4] has as its system Tumors derived from NIH3T3 cells expressing EML4-Alk. Kind of test: Xenograft mouse model, tumor volume. The note with it: Figure 6; EML4-Alk (positive control). It counts as in vivo, mice.
Test [5] has as its system H1581 cell line. The note with it: Figure 12; different concentrations. The method, then: (§4) All compounds were purchased from commercial suppliers, dissolved in DMSO, and stored at - 20°C. Cells were plated into sterile 96-- - well microtiter plates using a multichannel pipette and cultured overnight. Compounds were then added in serial dilutions. Cellular viability was determined after 96 hours of treatment by measuring cellular ATP content using the CellTiter-- Glo Assay (Promega). Plates were measured on a Mithras LB 940 Plate Reader (Berthold Technologies). GI50 values were determined using the following R package (Frommolt P, Thomas RK, 2008, Standardized high-- - throughput evaluation of cell-- - based compound screens. BMC Bioinformatics. 9:475)

Test [6] concerns H1581 cell line with Myc downregulated (shMyc). The note with it: Figure 12, different concentrations. The method, then:
as §4

The test system of test [7] is FGFR1-amplified and FGFR1 non-amplified cell lines.
Setting [8] is: Figure 3, FGFR1 plus Myc, 10mg/kg daily by oral gavage.

Turning to `CCN1CCN(c2ccc(Nc3cc(N(C)C(=O)Nc4c(Cl)c(OC)cc(OC)c4Cl)ncn3)cc2)CC1` [BGJ398], in test [1] (setting [8]), the tumor disappearance result was “disappeared within ten days of treatment”. Also, the tumor volume entry was “strong reduction of tumor volume” in test [1] (setting [8]); “completely disappeared after ten days of treatment” in test [1] (Figure 5, tumor with FGFR1 and c-myc expression, treated mouse); “did not shrink and even little grew” in test [2] (Figure 5, tumor expressing only FGFR1, treated mouse); “stable disease under treatment” in test [2] (Figure 6, two different splice variants of FGFR1); “increase in tumor volume” in test [4]. Also, the tumor size entry is “stable disease” in test [2] (Figure 3, only FGFR1, 10mg/kg daily by oral gavage) and “strong tumor growth” in test [3].
In the case of `CCN(CC)CCCCNc1ncc2cc(-c3cc(OC)cc(OC)c3)c(NC(=O)NC(C)(C)C)nc2n1` [PD173074], the results for the “response to FGFR inhibition” value in test [5] and in test [6] were “highly sensitive/responsive” and “less response”, respectively. Moreover, the IC50 values entry in test [7] (Figure 8, cell lines expressing high amounts of FGFR and Myc) is “lower IC50 values”; in test [7] (Figure 9, cell lines H1581 and A427, high FGFR, higher FGFR1β/FGFR1α ratio, high Myc expression), “lower IC50 values”.

For the origin of these results see patent publication EP2695950A1, “Markers for responsiveness to an inhibitor of the fibroblast growth factor receptor” (Blackfield AG, priority 2012, dated 2014).
